In US11311543B2, “Compositions and methods for inhibiting PTPN22” (YALE UNIVERSITY, priority 2016, dated 2022):

How the values were obtained:
mature naive B cells = assay: Peripheral B cell tolerance checkpoint in NSG+thymus mouse carrying the 1858T PTPN22 allele; format: in vivo, NSG mouse engrafted with human fetal HSCs and thymic tissue; conditions: LTV-1 0.75 mg twice daily for a month
Description: FIG. 41A depicts a schematic diagram depicting the LTV-1 PTPN22 inhibitor treatment strategy. A NSG+thymus mouse generated with CD34^+ HSCs and thymic graft carrying the 1858T PTPN22 allele was injected twice daily with 0.75 mg of PTPN22 inhibitor for four weeks. FIG. 41B depicts the frequencies of HEp-2 reactive mature naive B cells from NSG+thymus mice treated or not with the PTPN22 inhibitor were determined. […] For each B cell fraction, the frequency of reactive (filled area) and non-reactive (open area) clones is summarized in pie charts with the total number of clones tested indicated in the center. In summarized reactivity panels on the right, each symbol represents either a subject or a humanized mouse. Averages are shown with a bar. Statistically significant differences are indicated ****P≤0.0001, ***P≤0.001. FIG. 41C depicts the frequencies of polyreactive mature naive B cells from NSG+thymus mice treated or not with the PTPN22 inhibitor were determined. […] For each B cell fraction, the frequency of reactive (filled area) and non-reactive (open area) clones is summarized in pie charts with the total number of clones tested indicated in the center. In summarized reactivity panels on the right, each symbol represents either a subject or a humanized mouse. Averages are shown with a bar. Statistically significant differences are indicated ****P≤0.0001, ***P≤0.001. […]

SHIP1 = assay: Phosphorylation kinetics of SHIP1 in RAMOS cells after BCR triggering (immunoblot); format: cell-based, human; conditions: LTV-1 5 μg/mL
Description: (§1) FIG. 40A depicts the phosphorylation of SHIP1, Lyn and ERK1/2 in total cell lysates of Ramos B cells treated or not with the PTPN22 inhibitor LTV-1 (5 μg/mL) for the indicated times. The cells were subjected to immunoblot analysis of P-LYN P-SHIP1, P-ERK1/2, and β-ACTIN. FIG. 40B depicts flow cytometry analysis of calcium flux of Ramos B cells treated or not with the PTPN22 inhibitor LTV-1 (5 μg/mL) for the indicated times followed by stimulation with anti-IgM F(ab′)2 at the indicated concentrations. FIG. 40C depicts flow cytometry analysis of calcium flux of splenocyte cells treated or not with LTV-1 (0.75 mg) twice daily for 7 days and stimulated with anti-IgM F(ab′)2 (25 μg/mL). FIG. 40D depicts flow cytometry analysis of calcium flux of splenocyte expressing PTPN22 shRNA and stimulated with anti-IgM F(ab′)2 (25 μg/mL).
(§2) However, downstream ERK phosphorylation was not affected by PTPN22 inhibition (FIG. 40A). Since PTPN22 inhibition enhanced TCR signaling in Jurkat cell line, it was investigated if PTPN22 blockade may also increase BCR signaling and calcium flux induced by BCR triggering was measured in RAMOS cells in the presence or not of LTV-1. Calcium flux was increased by PTPN22 inhibition, especially at lower concentration of BCR triggering agent (FIG. 40B). […]

ERK = assay: Phosphorylation kinetics of ERK in RAMOS cells after BCR triggering (immunoblot); format: cell-based, human; conditions: LTV-1 5 μg/mL
Description: as §1, §2

PTPN22 = PTPN22 protein expression in GFP+ shRNA+ developing B cells from spleen of NSG mice; format: in vivo, human; conditions: GFP+ vs GFP- hCD19+ cells from spleen of NSG mice
Text: FIG. 9A depicts a schematic of the experimental design. CD34+ HSCs carrying PTPN22 T allele(s) were transduced with lentiviruses allowing the expression of PTPN22 shRNA before injection in the liver of 3 day-old NSG mice. FIG. 9B depicts representative flow cytometry analysis of CD19+ cells isolated from the spleen of NSG mouse engrafted with PTPN22 C/T HSCs transduced with a GFP-tagged lentivirus expressing PTPN22 specific shRNA. CD19+ B cells were stained with anti-hCD19, anti-IgM and anti-hCD10 antibodies. The frequencies of GFP− and GFP+ shRNA+ new emigrant B cells are shown. […] The frequencies of polyreactive new emigrant B cells from sorted GFP+ fractions expressing PTPN22 shRNA were determined and compared to those of GFP− new emigrant B cells. […] The frequencies of HEp-2 reactive new emigrant B cells from sorted GFP+ fractions expressing PTPN22 shRNA were determined and compared to those of GFP− new emigrant B cells. […]
Total cell lysates were separated by SDS page, transferred to PVDF membranes, probed with mouse anti-PTPN22 (Invitrogen) and detected by chemiluminescence (Amersham ECL Prime Western Blotting detection Reagent) using a GBox documentation system (Syngene). For quantification, blots were stripped with stripping buffer (Pierce) and reprobed with a mouse anti-β-Actin antibody (Sigma-Aldrich).

Compound	impaired peripheral B cell tolerance checkpoint (autoreactive mature naive B cells) (mature naive B cells)	phosphorylation of SHIP1 at position Y2010 (SHIP1)	downstream ERK phosphorylation (ERK)	decrease of PTPN22 expression in developing B cells (PTPN22)
Cc1ccccc1N1C(=O)/C(=C/c2ccc(OCc3cccc(C(=O)O)c3)cc2)C(=O)NC1=S [LTV-1]	effectively restored	decreases	not affected	
shRNA #1: shRNA targeting human PTPN22, 5′-CTAGTGCTCTTGGTGTATATT-3′, delivered by GFP-tagged lentivirus				more than 90%
